Test results published in US8604217B2, “Compound, a process for its preparation, a pharmaceutical composition, use of a compound, a method for modulating or regulating serine/threonine kinases and a serine/threonine kinases modulating agent” (Selvita S.A., priority 2009, dated 2013).

How the values were obtained:
Experiment in all cases: KinaseProfiler kinase panel
Type in all cases: biochemical
EphB2(h) = EphB2(h) (Homo sapiens (Human), UniProt P29323)
EphB1(h) = EphB1(h) (Homo sapiens (Human), UniProt P54762)
RIPK2(h) = RIPK2(h) (Homo sapiens (Human), UniProt O43353)
Chain of RIPK2(h) (O43353 whole entry): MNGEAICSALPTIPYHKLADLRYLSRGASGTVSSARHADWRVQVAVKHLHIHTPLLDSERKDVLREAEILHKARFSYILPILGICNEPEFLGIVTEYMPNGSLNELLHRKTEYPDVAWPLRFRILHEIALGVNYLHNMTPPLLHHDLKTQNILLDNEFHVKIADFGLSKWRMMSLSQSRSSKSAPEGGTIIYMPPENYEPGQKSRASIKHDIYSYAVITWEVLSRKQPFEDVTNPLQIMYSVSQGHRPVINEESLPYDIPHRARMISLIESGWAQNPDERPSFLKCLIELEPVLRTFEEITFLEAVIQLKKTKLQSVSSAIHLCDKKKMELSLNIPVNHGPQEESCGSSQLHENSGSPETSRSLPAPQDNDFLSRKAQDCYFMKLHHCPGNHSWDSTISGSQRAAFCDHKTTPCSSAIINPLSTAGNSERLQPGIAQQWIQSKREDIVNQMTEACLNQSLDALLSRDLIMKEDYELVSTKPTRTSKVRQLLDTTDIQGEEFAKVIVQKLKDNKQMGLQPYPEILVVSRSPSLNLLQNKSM

Chain of EphB1(h) (P54762 18-984): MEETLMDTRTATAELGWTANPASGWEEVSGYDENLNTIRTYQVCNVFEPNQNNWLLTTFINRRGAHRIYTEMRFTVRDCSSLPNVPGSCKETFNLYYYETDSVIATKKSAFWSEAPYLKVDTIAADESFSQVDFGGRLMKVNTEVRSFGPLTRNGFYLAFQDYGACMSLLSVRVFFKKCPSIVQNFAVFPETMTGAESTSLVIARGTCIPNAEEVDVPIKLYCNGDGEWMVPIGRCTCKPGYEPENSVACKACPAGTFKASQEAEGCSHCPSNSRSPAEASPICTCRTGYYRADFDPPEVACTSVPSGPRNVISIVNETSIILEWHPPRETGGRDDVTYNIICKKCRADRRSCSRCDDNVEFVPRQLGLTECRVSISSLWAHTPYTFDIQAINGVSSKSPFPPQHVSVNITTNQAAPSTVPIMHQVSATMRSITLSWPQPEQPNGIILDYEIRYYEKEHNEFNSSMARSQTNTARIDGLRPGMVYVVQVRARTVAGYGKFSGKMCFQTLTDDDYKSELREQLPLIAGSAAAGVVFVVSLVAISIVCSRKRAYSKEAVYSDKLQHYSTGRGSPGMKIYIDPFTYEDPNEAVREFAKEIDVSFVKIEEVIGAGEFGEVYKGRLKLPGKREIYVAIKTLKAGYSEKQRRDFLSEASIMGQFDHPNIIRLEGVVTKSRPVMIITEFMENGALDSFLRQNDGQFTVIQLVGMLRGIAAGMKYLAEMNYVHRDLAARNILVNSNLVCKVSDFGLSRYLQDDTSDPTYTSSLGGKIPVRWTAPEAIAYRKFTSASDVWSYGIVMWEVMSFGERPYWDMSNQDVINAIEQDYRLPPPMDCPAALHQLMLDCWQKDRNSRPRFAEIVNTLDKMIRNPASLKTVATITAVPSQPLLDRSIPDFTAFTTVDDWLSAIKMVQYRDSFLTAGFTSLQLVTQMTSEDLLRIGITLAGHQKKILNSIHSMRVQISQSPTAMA
Chain of EphB2(h) (P29323 19-1055): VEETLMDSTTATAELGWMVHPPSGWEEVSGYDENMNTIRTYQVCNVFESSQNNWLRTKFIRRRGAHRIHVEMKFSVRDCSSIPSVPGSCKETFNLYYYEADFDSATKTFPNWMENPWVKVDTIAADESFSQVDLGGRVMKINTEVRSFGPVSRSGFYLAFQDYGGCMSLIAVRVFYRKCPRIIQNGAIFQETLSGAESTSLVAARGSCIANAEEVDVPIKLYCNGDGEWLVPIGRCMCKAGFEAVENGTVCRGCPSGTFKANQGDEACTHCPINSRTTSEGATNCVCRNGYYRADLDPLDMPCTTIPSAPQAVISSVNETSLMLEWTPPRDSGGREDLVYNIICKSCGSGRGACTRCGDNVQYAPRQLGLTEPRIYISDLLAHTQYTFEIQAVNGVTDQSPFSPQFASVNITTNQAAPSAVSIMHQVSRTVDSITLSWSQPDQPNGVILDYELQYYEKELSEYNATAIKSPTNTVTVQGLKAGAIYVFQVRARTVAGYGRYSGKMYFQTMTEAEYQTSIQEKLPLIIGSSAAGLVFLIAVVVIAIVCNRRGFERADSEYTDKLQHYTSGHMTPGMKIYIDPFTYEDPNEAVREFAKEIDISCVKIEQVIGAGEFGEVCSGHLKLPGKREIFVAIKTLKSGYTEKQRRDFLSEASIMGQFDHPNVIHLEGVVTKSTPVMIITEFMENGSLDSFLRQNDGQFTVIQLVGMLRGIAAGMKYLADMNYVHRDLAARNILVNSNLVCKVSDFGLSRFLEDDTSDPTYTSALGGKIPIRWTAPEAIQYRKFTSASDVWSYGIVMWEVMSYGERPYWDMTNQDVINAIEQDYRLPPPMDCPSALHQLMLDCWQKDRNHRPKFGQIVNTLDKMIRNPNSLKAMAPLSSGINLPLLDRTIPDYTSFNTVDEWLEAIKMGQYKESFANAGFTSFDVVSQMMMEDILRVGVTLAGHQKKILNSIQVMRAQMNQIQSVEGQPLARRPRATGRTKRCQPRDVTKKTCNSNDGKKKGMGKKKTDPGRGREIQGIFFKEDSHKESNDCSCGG

CCn1c(N2CCNCC2)nc2c(Br)c(Br)c(Br)c(Br)c21 [Compound 416, 4,5,6,7-tetrabromo-1-ethyl-2-(piperazin-1-yl)-1H-benzo[d]imidazole]
remaining activity at 1 µM (EphB2(h)): 106% | remaining activity at 1 µM (EphB1(h)): 87% | remaining activity at 1 µM (RIPK2(h)): 79%
